In PubChem BioAssay (NCI):
Values joined by “and” are separate entries in the source; they are usually repeats but may differ in a detail not shown here. Equal values may be shown once.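 Each compound was tested at five concentrations against cells in 96-well plates for 48 hours. GI50 is the concentration that inhibits growth by half. TGI marks complete inhibition of growth.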

Legend:
Test in all cases: NCI tumour cell line growth inhibition, 48 h
[1] = tested on: SNB-78 CNS
[2] = tested on: SNB-75 CNS
[3] = tested on: HCT-116 colon
[4] = tested on: XF 498 CNS
[5] = tested on: SNB-19 CNS
[6] = tested on: OVCAR-3 ovarian
[7] = tested on: MALME-3M melanoma
[8] = tested on: 786-0 renal
[9] = tested on: MCF7 breast
[10] = tested on: SF-295 CNS
[11] = tested on: U251 CNS
[12] = tested on: CCRF-CEM leukemia
[13] = tested on: T-47D breast
[14] = tested on: EKVX NSCLC
[15] = tested on: A549 NSCLC
[16] = tested on: SN12K1 renal
[17] = tested on: HOP-62 NSCLC
[18] = tested on: SK-OV-3 ovarian
[19] = tested on: ACHN renal
[20] = tested on: A498 renal
[21] = tested on: HCC-2998 colon
[22] = tested on: SR leukemia
[23] = tested on: SK-MEL-2 melanoma
[24] = tested on: RXF 393 renal
[25] = tested on: P388/ADR leukemia
[26] = tested on: BT-549 breast
[27] = tested on: TK-10 renal
[28] = tested on: SK-MEL-5 melanoma
[29] = tested on: DMS 114 small cell lung
[30] = tested on: SK-MEL-28 melanoma
[31] = tested on: OVCAR-8 ovarian
[32] = tested on: KM12 colon
[33] = tested on: DMS 273 small cell lung
[34] = tested on: OVCAR-4 ovarian
[35] = tested on: HS 578T breast
[36] = tested on: HOP-92 NSCLC
[37] = tested on: NCI-H226 lung
[38] = tested on: NCI-H522 lung
[39] = tested on: DU-145 prostate
[40] = tested on: MDA-N
[41] = tested on: MDA-MB-435
[42] = tested on: MDA-MB-231 breast
[43] = tested on: CAKI-1 renal
[44] = tested on: M14 melanoma
[45] = tested on: IGROV1 ovarian
[46] = tested on: UACC-257 melanoma
[47] = tested on: HOP-18 NSCLC
[48] = tested on: HL-60(TB) leukemia
[49] = tested on: COLO 205 colon
[50] = tested on: P388 leukemia
[51] = tested on: UACC-62 melanoma
[52] = tested on: HT29 colon
[53] = tested on: SN12C renal
[54] = tested on: RPMI-8226 leukemia
[55] = tested on: PC-3 prostate
[56] = tested on: SF-539 CNS
[57] = tested on: NCI-H460 lung
[58] = tested on: NCI-H23 lung
[59] = tested on: HCT-15 colon
[60] = tested on: UO-31 renal
[61] = tested on: KM20L2 colon
[62] = tested on: SF-268 CNS
[63] = tested on: OVCAR-5 ovarian
[64] = tested on: K-562 leukemia
[65] = tested on: SW-620 colon
[66] = tested on: LXFL 529 NSCLC
[67] = tested on: MOLT-4 leukemia
[68] = tested on: LOX IMVI melanoma
[69] = tested on: DLD-1 colon
[70] = tested on: M19-MEL melanoma
[71] = tested on: NCI/ADR-RES ovarian
[72] = tested on: RXF-631 renal

Q: What does the source list for `COC(=O)[C@@]12OC[C@]34[C@H]([C@@H](O)[C@@H]1O)[C@@]1(C)CC(=O)C(O)=C(C)[C@@H]1C[C@H]3OC(=O)[C@H](OC(=O)/C=C(\C)C(C)C)[C@@H]24`?
A: GI50 [1]: 0.89 nM; TGI [1]: 8.99 nM and 42.7 nM and 70.7 nM; TGI [2]: 18.6 nM and 20.3 nM; TGI [3]: 14.4 nM and 47.8 nM; TGI [4]: 21.2 nM; GI50 [5]: 4.64 nM; TGI [5]: 21.4 nM and 145 nM; TGI [6]: 15.1 nM and 91.1 nM; TGI [7]: 4.98 nM and 26.3 nM; GI50 [8]: 21.7 nM; TGI [8]: 72 nM and < 12 nM and 42.9 nM; TGI [9]: 21 nM and 26.4 nM; TGI [10]: 34.5 nM and 58.2 nM; TGI [11]: 20.6 nM and 65.7 nM; GI50 [12]: 2.24 nM; TGI [12]: 18.4 nM and 182 nM; TGI [13]: 58.1 nM; TGI [14]: 51.7 nM and 28.3 nM and 31.6 nM; TGI [15]: 16.8 nM and < 16.3 nM and 47.3 nM; TGI [16]: 54.1 nM; TGI [17]: 34.2 nM and < 11 nM and 21.6 nM; TGI [18]: 25.4 nM and 175 nM; GI50 [19]: 20 nM; TGI [19]: 26 nM and 12.4 nM and 24.5 nM; GI50 [20]: 4.87 nM; TGI [20]: 10.9 nM and 22 nM; TGI [21]: 3.42 nM; TGI [22]: 36.9 nM; GI50 [23]: 5.17 nM; TGI [23]: 19.5 nM and 30.3 nM; TGI [24]: 30.3 nM and 29.7 nM; TGI [25]: 692 nM; GI50 [26]: 26.2 nM; TGI [26]: 60 nM and 15.6 nM and 21.4 nM; GI50 [27]: 23.5 nM; TGI [27]: 71.9 nM and 33.3 nM; TGI [28]: 3.33 nM and 27.8 nM; GI50 [29]: 0.0354 nM; TGI [29]: 0.286 nM; TGI [30]: 14.2 nM and < 33.9 nM and 31.7 nM; TGI [31]: 40.6 nM and 56.1 nM; TGI [32]: 30 nM and 146 nM and 57.4 nM; TGI [33]: 0.177 nM; GI50 [34]: 3.34 nM; TGI [34]: 17 nM and 22.5 nM; GI50 [35]: 20 nM; TGI [35]: 20.9 nM and 27.3 nM; TGI [36]: 37.8 nM and 92.1 nM; TGI [37]: 7.71 nM and 23.6 nM; TGI [38]: 7.23 nM; GI50 [39]: 20 nM; TGI [39]: 45.1 nM and 29.3 nM; GI50 [40]: 20 nM; TGI [40]: 34.5 nM and 32.1 nM; TGI [41]: 41.5 nM and 12.8 nM; GI50 [42]: 22.8 nM; TGI [42]: 82.2 nM and 75.7 nM; TGI [43]: 55 nM and 29.5 nM and 159 nM; TGI [44]: 10.9 nM; TGI [45]: 15.3 nM and 59 nM; TGI [46]: 31.6 nM and 30.5 nM; GI50 [47]: 1.61 nM; TGI [47]: 16 nM and 84.8 nM; TGI [48]: 5.83 nM; TGI [49]: 16.7 nM and 58.6 nM; TGI [50]: 109 nM; TGI [51]: 13.1 nM and 23 nM; TGI [52]: 16.1 nM and 71.8 nM; TGI [53]: 58.2 nM and 31.7 nM and 102 nM; TGI [54]: 12.9 nM and < 40.9 nM and 54.5 nM; GI50 [55]: 20 nM; TGI [55]: 51.2 nM and 12.8 nM and 28 nM; TGI [56]: 6.11 nM and 23.4 nM; TGI [57]: 5.67 nM and 43.5 nM; TGI [58]: 15 nM and 68.8 nM; TGI [59]: 58.8 nM and 56.2 nM and 55 nM; TGI [60]: 83.4 nM and 142 nM and 405 nM

Q: Which results are given for `CC1[C@@]2(CCC(C)(C)O2)O[C@@H]2C=C3C4CCC5Cc6nc7c(nc6C[C@@]5(C)C4C[C@H](O)[C@@]3(C)[C@]12O)CC1CCC2C3=C[C@H]4O[C@@]5(O[C@@](C)(CO)C[C@@H]5O)C(C)[C@@]4(O)[C@]3(C)[C@@H](O)CC2[C@]1(C)C7` (some centres undefined)?
A: GI50 [1]: 1.5 nM; TGI [1]: 464 nM and 312 nM; GI50 [2]: < 0.365 nM; GI50 [3]: 27.3 nM; TGI [3]: 719 nM and 493 nM; GI50 [4]: 4.88 nM; GI50 [5]: 41 nM; TGI [5]: 808 nM and 820 nM; GI50 [6]: 435 nM; TGI [6]: 1110 nM; GI50 [7]: 10.1 nM; TGI [8]: 600 nM; TGI [9]: 524 nM; GI50 [10]: < 0.365 nM; GI50 [61]: 2.89 nM; TGI [61]: 478 nM and 89 nM; GI50 [11]: 0.43 nM; GI50 [12]: 1.7 nM; TGI [12]: 106 nM and 18 nM; GI50 [62]: 4.64 nM; TGI [62]: 904 nM and 125 nM; GI50 [14]: 5.21 nM; TGI [14]: 875 nM and 462 nM; GI50 [15]: 2.8 nM; TGI [15]: 711 nM; TGI [16]: 395 nM; GI50 [17]: 0.389 nM; GI50 [18]: 1.78 nM; GI50 [20]: 1.06 nM; TGI [20]: 140 nM and 42.6 nM; GI50 [63]: 5.86 nM; GI50 [21]: 401 nM; TGI [21]: 860 nM; GI50 [23]: 4.44 nM; GI50 [24]: < 0.365 nM; TGI [25]: 1160 nM; TGI [27]: 981 nM; GI50 [28]: 16.5 nM; TGI [28]: 370 nM and 84.1 nM; GI50 [29]: 0.805 nM; TGI [30]: 221 nM; GI50 [31]: 426 nM; TGI [31]: 1200 nM; GI50 [32]: 44.6 nM; TGI [32]: 624 nM and 572 nM; GI50 [64]: 10.3 nM; TGI [64]: 440 nM and 445 nM; GI50 [33]: < 0.365 nM; GI50 [34]: 92.1 nM; TGI [34]: 810 nM; GI50 [65]: 9.38 nM; TGI [65]: 499 nM and 50.8 nM; GI50 [36]: 2.28 nM; GI50 [37]: 10.7 nM; TGI [37]: 411 nM and 806 nM; TGI [66]: 82.4 nM; GI50 [38]: 13.2 nM; TGI [38]: 418 nM and 80.4 nM; GI50 [67]: 1.41 nM; GI50 [68]: 10.6 nM; TGI [68]: 695 nM and 366 nM; GI50 [43]: 19.5 nM; TGI [43]: 660 nM; TGI [44]: 122 nM; GI50 [45]: 8.31 nM; TGI [45]: 590 nM; GI50 [46]: 26.5 nM; TGI [46]: 358 nM and 84.7 nM; GI50 [69]: 80.5 nM; TGI [69]: 1110 nM; GI50 [70]: 336 nM; TGI [70]: 791 nM; GI50 [48]: < 0.365 nM; TGI [48]: 331 nM and 46.5 nM; TGI [71]: 2050 nM; GI50 [49]: 14.1 nM; TGI [49]: 472 nM and 52.5 nM; TGI [50]: 734 nM; GI50 [51]: 3.87 nM; GI50 [52]: 1.79 nM; GI50 [53]: 421 nM; TGI [53]: 1190 nM; TGI [54]: 32 nM; GI50 [56]: 3.03 nM; TGI [56]: 41.8 nM and 41.5 nM; GI50 [57]: 1.35 nM; TGI [57]: 365 nM and 39.2 nM; GI50 [58]: 3.08 nM; GI50 [59]: 9.07 nM; TGI [59]: 732 nM and 75 nM; TGI [60]: 114 nM; TGI [72]: 213 nM
